Reference: patent US20150157739A1, “Imidazo[2,1]thiazol-3-one derivatives” (Hoffmann-La Roche Inc., priority 2012, published 2015)

Experiments:
[1] = target: T1, aggregated synthetic Aβ40 (Homo sapiens, UniProt P05067); assay: Thiazin-red R displacement fluorescence assay on aggregated A-beta; assay type: binding; details: displacement of Thiazin-red R from aggregated Aβ40; compound 0.3 nM to 10000 nM; 30 min room temperature; Ex 531 nm/Em 595 nm
T1 construct: Synthetic Aβ40 is aggregated at a concentration of 50 μM
T1 sequence (P05067 672-711 limits assumed): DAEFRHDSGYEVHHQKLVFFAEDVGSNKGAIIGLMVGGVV
Protocol: (§1) Assay for Determination of […] for Tau and A-Beta
(§2) Recombinant human-microtubule associated protein Tau purified from E. coli is aggregated at a concentration of 5 μM with Arachidonic Acid (100 μM) in Tris 10 mM pH8, 24 h at 37° C. Synthetic Aβ40 is aggregated at a concentration of 50 μM with Arachidonic Acid (100 μM) in Tris 10 mM pH8, for three days at 37° C., under shaking at 150 rpm.
(§3) A saturation analysis of Thiazin-red R to the aggregated proteins is done to determine the affinity (Kd) of the Thiazin-red R to the aggregated protein.
(§4) Thiazin-red R will be added at the concentration corresponding to the Kd to the respective aggregated protein binding site, to induce a fluorescent signal that can be inhibited by the addition of a displacer compound.
(§5) In parallel, auto fluorescence of the compound is measured together with the aggregated proteins, but without Thiazin-red R. As negative control, ligand and aggregated protein is used and as positive control, Thiazin-red R, reference compound with known activity and aggregated protein is used.
(§6) Assay is performed in Perkin Elmer OptiPlate 384, black, 45 ul assay volume, assay buffer is DPBS no CaCl2 no MgCl2 (GIBCO N. 14020). Tested compounds are diluted in DMSO and 2 μl is added to the assay ([…]). Assay is started by the addition of the aggregated protein (competitive condition). Plates are shortly shacked (1 min with Sterico variomag teleshake) and incubated for 30 min at room temperature. Measurement are done with En:Vision (Perkin Elmer), at Excitation 531 nm/Emission 595 nm.

[2] = target: T2, aggregated recombinant human-microtubule associated protein Tau (Homo sapiens, UniProt P10636); assay: Thiazin-red R displacement fluorescence assay on aggregated Tau; assay type: binding; details: displacement of Thiazin-red R from aggregated Tau; compound 0.3 nM to 10000 nM; 30 min room temperature; Ex 531 nm/Em 595 nm
T2 construct: Recombinant human-microtubule associated protein Tau purified from E. coli is aggregated at a concentration of 5 μM with Arachidonic Acid (100 μM) in Tris 10 mM pH8, 24 h at 37° C
T2 sequence (P10636 whole entry): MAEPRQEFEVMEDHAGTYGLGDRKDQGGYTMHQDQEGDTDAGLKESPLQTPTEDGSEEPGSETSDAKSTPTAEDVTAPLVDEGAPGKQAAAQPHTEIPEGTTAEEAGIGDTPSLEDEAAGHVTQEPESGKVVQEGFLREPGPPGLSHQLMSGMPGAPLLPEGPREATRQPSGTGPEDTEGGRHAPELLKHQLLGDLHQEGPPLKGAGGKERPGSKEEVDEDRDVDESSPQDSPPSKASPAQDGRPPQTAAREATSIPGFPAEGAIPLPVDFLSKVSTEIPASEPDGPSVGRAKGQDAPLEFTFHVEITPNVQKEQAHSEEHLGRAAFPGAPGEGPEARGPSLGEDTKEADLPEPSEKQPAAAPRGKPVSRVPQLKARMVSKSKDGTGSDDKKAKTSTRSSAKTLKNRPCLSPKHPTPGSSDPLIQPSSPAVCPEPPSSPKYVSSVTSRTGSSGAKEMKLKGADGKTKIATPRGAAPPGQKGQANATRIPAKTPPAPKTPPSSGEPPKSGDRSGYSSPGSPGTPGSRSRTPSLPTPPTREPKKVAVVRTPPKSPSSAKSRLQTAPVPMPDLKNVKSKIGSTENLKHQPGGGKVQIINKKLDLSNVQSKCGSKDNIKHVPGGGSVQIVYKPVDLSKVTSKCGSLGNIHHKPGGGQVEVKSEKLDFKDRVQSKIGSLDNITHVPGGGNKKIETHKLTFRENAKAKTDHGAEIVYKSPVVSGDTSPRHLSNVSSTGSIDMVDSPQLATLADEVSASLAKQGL
Protocol: as §1, §2, §3, §4, §5, §6

IC50 [1]	IC50 [2]	Structure (SMILES)
86 nM	2 nM	COc1cc(/C=c2\sc3nc(-c4ccc(C(=O)NCCCF)cc4)cn3c2=O)cc(Cl)c1O (single isomer, unassigned) [Example 133]
93 nM	5 nM	COc1cc(/C=c2\sc3nc(-c4ccncc4)cn3c2=O)cc(OC)c1O [Example 1, 2-[1-(4-Hydroxy-3,5-dimethoxy-phenyl)-meth-(Z)-ylidene]-6-pyridin-4-yl-imidazo[2,1-b]thiazol-3-one]
7 nM	2 nM	COc1cc(/C=c2\sc3nc(-c4ccc(Cl)cc4)cn3c2=O)cc(OC)c1O [Example 2, 6-(4-Chloro-phenyl)-2-[1-(4-hydroxy-3,5-dimethoxy-phenyl)-meth-(Z)-ylidene]-imidazo[2,1-b]thiazol-3-one]
215 nM	49 nM	COc1cc(/C=c2\sc3nc(-c4ccc(Cl)cc4)cn3c2=O)ccc1O [Example 3, 6-(4-Chloro-phenyl)-2-[1-(4-hydroxy-3-methoxy-phenyl)-meth-(Z)-ylidene]-imidazo[2,1-b]thiazol-3-one]
393 nM	11 nM	COc1cc(/C=c2\sc3nc(-c4ccc(Cl)cc4)cn3c2=O)cc(F)c1O [Example 4, 6-(4-Chloro-phenyl)-2-[1-(3-fluoro-4-hydroxy-5-methoxy-phenyl)-meth-(Z)-ylidene]-imidazo[2,1-b]thiazol-3-one]
1160 nM	178 nM	CCOc1cc(/C=c2\sc3nc(-c4ccc(Cl)cc4)cn3c2=O)ccc1O [Example 5, 6-(4-Chloro-phenyl)-2-[1-(3-ethoxy-4-hydroxy-phenyl)-meth-(Z)-ylidene]-imidazo[2,1-b]thiazol-3-one]
32 nM	2 nM	COc1cc(/C=c2\sc3nc(-c4ccc(Cl)cc4)cn3c2=O)cc(Cl)c1O [Example 6, 6-(4-Chloro-phenyl)-2-[1-(3-chloro-4-hydroxy-5-methoxy-phenyl)-meth-(Z)-ylidene]-imidazo[2,1-b]thiazol-3-one]
18 nM	2 nM	COc1cc(/C=c2\sc3nc(-c4ccc(Cl)cc4)cn3c2=O)cc(Br)c1O [Example 7, 6-(4-Chloro-phenyl)-2-[1-(3-bromo-4-hydroxy-5-methoxy-phenyl)-meth-(Z)-ylidene]-imidazo[2,1-b]thiazol-3-one]
18 nM	5 nM	COc1cc(/C=c2\sc3nc(-c4ccc(Cl)cc4)cn3c2=O)cc(O)c1O [Example 8, 6-(4-Chloro-phenyl)-2-[1-(3,4-dihydroxy-5-methoxy-phenyl)-meth-(Z)-ylidene]-imidazo[2,1-b]thiazol-3-one]
706 nM	105 nM	COc1cc(/C=c2\sc3nc(-c4ccccc4C)cn3c2=O)cc(F)c1O [Example 9, 2-[1-(3-Fluoro-4-hydroxy-5-methoxy-phenyl)-meth-(Z)-ylidene]-6-o-tolyl-imidazo[2,1-b]thiazol-3-one]
1220 nM	28 nM	COc1cc(/C=c2\sc3nc(-c4ccccc4C)cn3c2=O)cc(Cl)c1O [Example 10, 2-[1-(3-Chloro-4-hydroxy-5-methoxy-phenyl)-meth-(Z)-ylidene]-6-o-tolyl-imidazo[2,1-b]thiazol-3-one]
1280 nM	837 nM	COc1cc(/C=c2\sc3nc(-c4ccccc4C)cn3c2=O)ccc1O [Example 11, 2-[1-(4-hydroxy-3-methoxy-phenyl)-meth-(Z)-ylidene]-6-o-tolyl-imidazo[2,1-b]thiazol-3-one]
> 10000 nM	79 nM	COc1cc(/C=c2\sc3nc(-c4ccnc(C)c4)cn3c2=O)ccc1O [Example 12, 2-[1-(4-Hydroxy-3-methoxy-phenyl)-meth-(Z)-ylidene]-6-(2-methyl-pyridin-4-yl)-imidazo[2,1-b]thiazol-3-one]
> 10000 nM	91 nM	COc1cc(/C=c2\sc3nc(-c4cc(C)nc(C)c4)cn3c2=O)ccc1O [Example 13, 2-[1-(4-Hydroxy-3-methoxy-phenyl)-meth-(Z)-ylidene]-6-(2,6-dimethyl-pyridin-4-yl)-imidazo[2,1-b]thiazol-3-one]
466 nM	37 nM	COc1ccc(-c2nc3s/c(=C\c4cc(Cl)c(O)c(OC)c4)c(=O)n3c2C)cc1 [Example 14, 2-[1-(3-Chloro-4-hydroxy-5-methoxy-phenyl)-meth-(Z)-ylidene]-6-(4-methoxy-phenyl)-5-methyl-imidazo[2,1-b]thiazol-3-one]
437 nM	53 nM	COc1ccc(-c2nc3s/c(=C\c4cc(F)c(O)c(OC)c4)c(=O)n3c2C)cc1 [Example 15, 2-[1-(3-Fluoro-4-hydroxy-5-methoxy-phenyl)-meth-(Z)-ylidene]-6-(4-methoxy-phenyl)-5-methyl-imidazo[2,1-b]thiazol-3-one]
32 nM	8 nM	COc1cc(/C=c2\sc3nc(-c4ccnc(C)c4)cn3c2=O)cc(OC)c1O [Example 16, 2-[1-(4-Hydroxy-3,5-dimethoxy-phenyl)-meth-(Z)-ylidene]-6-(2-methyl-pyridin-4-yl)-imidazo[2,1-b]thiazol-3-one]
68 nM	5 nM	COc1cc(/C=c2\sc3nc(-c4cc(C)nc(C)c4)cn3c2=O)cc(OC)c1O [Example 17, 2-[1-(4-Hydroxy-3,5-dimethoxy-phenyl)-meth-(Z)-ylidene]-6-(2,6-dimethyl-pyridin-4-yl)-imidazo[2,1-b]thiazol-3-one]
114 nM	4 nM	COc1cc(/C=c2\sc3nc(-c4cccc(OC(F)(F)F)c4)cn3c2=O)cc(OC)c1O [Example 18, 2-[1-(4-Hydroxy-3,5-dimethoxy-phenyl)-meth-(Z)-ylidene]-6-(3-trifluoromethoxy-phenyl)-imidazo[2,1-b]thiazol-3-one]
–	13 nM	COc1cc(/C=c2\sc3nc(-c4cccc(OC(F)(F)F)c4)cn3c2=O)cc(F)c1O [Example 35, 2-[1-(3-Fluoro-4-hydroxy-5-methoxy-phenyl)-meth-(Z)-ylidene]-6-(3-trifluoromethoxy-phenyl)-imidazo[2,1-b]thiazol-3-one]
> 10000 nM	–	COc1cc(/C=c2\sc3nc(-c4cccc(C#N)c4)cn3c2=O)cc(F)c1O [Example 38, 3-{2-[1-(3-Fluoro-4-hydroxy-5-methoxy-phenyl)-meth-(Z)-ylidene]-3-oxo-2,3-dihydro-imidazo[2,1-b]thiazol-6-yl}-benzonitrile]
–	7 nM	COc1cc(/C=c2\sc3nc(-c4cccc(C#N)c4)cn3c2=O)cc(OC)c1O [Example 50, 3-{2-[1-(4-Hydroxy-3,5-dimethoxy-phenyl)-meth-(Z)-ylidene]-3-oxo-2,3-dihydro-imidazo[2,1-b]thiazol-6-yl}-benzonitrile]
–	103 nM	COc1ccccc1-c1cn2c(=O)/c(=C/c3cc(Cl)c(O)c(OC)c3)sc2n1 [Example 55, 2-[1-(3-Chloro-4-hydroxy-5-methoxy-phenyl)-meth-(Z)-ylidene]-6-(2-methoxy-phenyl)-imidazo[2,1-b]thiazol-3-one]
–	27 nM	COc1cc(/C=c2\sc3nc(-c4cc(F)ccc4F)cn3c2=O)cc(Cl)c1O [Example 56, 2-[1-(3-Chloro-4-hydroxy-5-methoxy-phenyl)-meth-(Z)-ylidene]-6-(2,5-difluoro-phenyl)-imidazo[2,1-b]thiazol-3-one]
13 nM	–	COc1cc(/C=c2\sc3nc(-c4cccc(C#N)c4)cn3c2=O)cc(F)c1O [Example 73, 3-{2-[1-(3-Fluoro-4-hydroxy-5-methoxy-phenyl)-meth-(Z)-ylidene]-3-oxo-2,3-dihydro-imidazo[2,1-b]thiazol-6-yl}-benzonitrile]
–	173 nM	COc1cc(/C=c2\sc3nc(-c4ccccc4OCCF)cn3c2=O)cc(Cl)c1O [Example 83, 2-[1-(3-Chloro-4-hydroxy-5-methoxy-phenyl)-meth-(Z)-ylidene]-6-(2-(2-fluoroethoxyl)phenyl)-imidazo[2,1-b]thiazol-3-one]
–	102 nM	COc1cc(/C=c2\sc3nc(-c4ccccc4OCCOCCOCCF)cn3c2=O)cc(Cl)c1O [Example 96, 2-[1-(3-Chloro-4-hydroxy-5-methoxy-phenyl)-meth-(Z)-ylidene]-6-(2-{2-[2-(2-fluoro-ethoxy)-ethoxy]-ethoxy}-phenyl)-imidazo[2,1-b]thiazol-3-one]
–	49 nM	COc1cc(/C=c2\sc3nc(-c4cccc(C(=O)N(C)CCF)c4)cn3c2=O)cc(Cl)c1O [Example 120, 3-{2-[1-(3-Chloro-4-hydroxy-5-methoxy-phenyl)-meth-(Z)-ylidene]-3-oxo-2,3-dihydro-imidazo[2,1-b]thiazol-6-yl}-N-(2-fluoro-ethyl)-N-methyl-benzamide]
